Experimental data taken from PubChem BioAssay AID2823 (Broad Institute, 2010).
The source made the active and inactive calls. The rule behind the calls is not given here.

Each compound was assayed against RanGTP-importin-beta complex (human Ran / KPNB1) (assay: Ran–importin-beta interaction inhibitors, confirmation, biochemical, FRET, CFP/YFP, cell-free homogeneous (AID 2823)). Conditions: CFP-Ran/YFP-importin-beta FRET ratio.

| SMILES | IC50 |
| --- | --- |
| O=C(c1ccccc1)c1cc2ccc(O)cc2oc1=O | 13 µM |
| CCCc1cc(=O)oc2c(CN(CC)CC)c(O)c(Cl)cc12 | 43.4 µM |
| CCCOC(=S)NC(=O)c1sc2ccccc2c1Cl | > 50 µM (inactive) |
| N#CC1=C(N)Oc2cc3c(cc2C1c1ccc(Cl)cc1)OCO3 (centres undefined) | > 50 µM (inactive) |
| Clc1ccc(-c2ncc3ccccn23)cc1 | > 50 µM (inactive) |
| Nc1c(C(=O)Nc2ccccc2)c2nc3ccccc3nc2n1CCCN1CCOCC1 | 41.7 µM |
| COc1ccc(CCNc2oc(-c3ccco3)nc2C#N)cc1 | > 50 µM (inactive) |
| Cc1ccc(S(=O)(=O)CC(=O)N(CCCN(C)C)c2nc3ccc(C)cc3s2)cc1 | > 50 µM (inactive) |
| N#Cc1c(N)nc2c(c1-c1ccccc1)CCC2 | 14.3 µM |
| COc1ccc(C(CNC(=O)c2cc(F)c(F)c(F)c2F)N2CCOCC2)cc1 (centres undefined) | > 50 µM (inactive) |
| CCc1c(C)c2cc(Cl)c(O)c(CN(CC)CC)c2oc1=O | 22 µM |
| CN1CCN(C(=O)c2cc3nc(-c4ccccc4)cc(C(F)(F)F)n3n2)CC1 | > 50 µM (inactive) |
| CCOC(=O)C1=C(C)NC2=C(C(=O)C(C(=O)OCC)C(c3ccc(OC)cc3)C2)C1c1ccccn1 (centres undefined) | 28.4 µM |
| CCCN(CCO)Cc1cccc(Br)c1 | > 50 µM (inactive) |
| O=C(Nc1ccccc1-c1ccccc1)c1cccs1 | > 50 µM (inactive) |
| CC(C)c1ccc(CN2CCC(Oc3ccc(C(=O)N4CCCC4)cc3)CC2)cc1 | > 50 µM (inactive) |
| Cc1ccc(N=Cc2cc3c(cc2[N+](=O)[O-])OCO3)cc1[N+](=O)[O-] | > 50 µM (inactive) |
| CCCCN(C)C(=O)c1cccc(OC2CCN(CC(C)(C)C)CC2)c1 | > 50 µM (inactive) |
| COC(=O)CCC(=O)OC1(C)C(=O)C=C2C=C(C3CC3)N(Cc3ccc(OC)cc3)C=C2C1=O (centres undefined) | 26.7 µM |
| COc1ccc(-c2cc(C(=O)O)nc3ccc4ccccc4c23)cc1OC | > 50 µM (inactive) |
| CCc1ccc(N2C(=O)NC(=O)/C(=C\c3cc(C)n(-c4cc(C(=O)O)cc(C(=O)O)c4)c3C)C2=O)cc1 | > 50 µM (inactive) |
| CCOC(=O)/C(C#N)=C1/C=Nc2ccccc2N1 | > 50 µM (inactive) |
| CC(C)OC(=O)c1c(N)n(CCCN2CCOCC2)c2nc3ccccc3nc12 | 25.8 µM |
| CCCc1n(CC(O)COCc2ccccc2)c2ccccc2[n+]1C (centres undefined) | > 50 µM (inactive) |
| COc1ccc(CNCc2c(O)c(Cl)cc3c(C)c(C)c(=O)oc23)c(OC)c1 | 6.06 µM |

| SMILES | IC50 |
| --- | --- |
| CC#CC(=O)N1CCC(C(=O)Nc2ccc(Oc3ccccc3)nc2)CC1 | > 50 µM (inactive) |
| CCCc1cc(=O)oc2c(CN3CCCC3)c(O)c(Cl)cc12 | 27.1 µM |
| O=C(Cc1n[nH]c(=O)c2ccccc12)NCc1ccccn1 | > 50 µM (inactive) |
| O=C(CN1CC(=O)Oc2ccccc21)NCc1ccco1 | > 50 µM (inactive) |
| Cc1ccc(NC(=O)C2CCN(S(=O)(=O)c3ccc(Cl)c(C(F)(F)F)c3)CC2)nc1 | > 50 µM (inactive) |
| CCOCCCn1c(=N)c(C(=O)NCc2ccc3c(c2)OCO3)cc2c(=O)n3cccc(C)c3nc21 | 14.9 µM |
| Cc1cccc(C)c1NC(=O)C1=C(O)c2sccc2N(C)S1(=O)=O | 4.36 µM |
| Cc1ccc(-n2c(=O)c(C#N)cc3c(=O)n4ccccc4nc32)cc1C | > 50 µM (inactive) |
| O=C(Nc1ccnc(-c2ccncc2)n1)c1ccc(Cl)cc1 | > 50 µM (inactive) |
| CCOC(=O)c1c(N)n(CCN2CCCCC2)c2nc3ccccc3nc12 | 32.3 µM |
| Cc1ccc(OCC(=O)N2CCCCCC2)c(C)c1 | > 50 µM (inactive) |
| COc1ccc(CCNC(=O)c2cc3c(=O)n4ccccc4nc3n(CC3CCCO3)c2=N)cc1OC (centres undefined) | 21.3 µM |
| COc1ccc2c(c1)O/C(=C\c1ccco1)C2=O | 18.3 µM |
| COc1ccc(-n2c(C)cc(/C=C3/SC(=S)N(C)C3=O)c2C)cc1 | > 50 µM (inactive) |
| O=c1[nH]c2cc(Br)cnc2nc1/C=C(\O)c1ccc(F)cc1 | > 50 µM (inactive) |
| Cc1ccc(/C=C/C(=O)Nc2cccc3ncccc23)o1 | > 50 µM (inactive) |
| Cc1cccc(C)c1NC(=O)C1c2cccc[n+]2CC(=O)N1Cc1cccs1 (centres undefined) | > 50 µM (inactive) |
| COC(=O)c1cc(=O)n2c(sc3ccccc32)c1C#N | 1.32 µM |
| Cn1c(=O)cc(OCCCC(=O)NCc2ccccn2)c2ccccc21 | > 50 µM (inactive) |
| Cc1nnc(Sc2nc3c(c(=O)n(C)c(=O)n3C)n2Cc2ccccc2Cl)s1 | > 50 µM (inactive) |
| C=CCOc1c(Br)cc(CNc2ccc(NC(=O)C(C)C)c(OC)c2)cc1OC | > 50 µM (inactive) |
| CCOC(=O)C1=C(C)NC2=C(C(=O)C(C(=O)OCC)C(c3ccccc3OC)C2)C1c1ccccn1 (centres undefined) | 26.2 µM |
| O=C(Oc1c(CN2CCOCC2)cc(Cl)c2cccnc12)c1ccccc1 | > 50 µM (inactive) |
| Cc1cccc(C)c1OCC(=O)OC/C(O)=C(\C#N)c1nc2ccccc2[nH]1 | > 50 µM (inactive) |
| COc1ccc2c(c1)C(c1ccc(C)o1)=NNC(c1cccnc1)=N2 | > 50 µM (inactive) |

| SMILES | IC50 |
| --- | --- |
| COc1ccc2cc(-c3nc4ccccc4n3C)c(=O)oc2c1 | 19.1 µM |
| Cc1cccc(/C=N/c2sc3c(c2C#N)CCN(Cc2ccccc2)C3)c1O | > 50 µM (inactive) |
| Cc1ccc(S(=O)(=O)NCCN(CCNS(=O)(=O)c2ccc(C)cc2)S(C)(=O)=O)cc1 | > 50 µM (inactive) |
| CC(OC(=O)CNC(=O)c1cccc(F)c1)C(=O)NC1CCCCC1C (centres undefined) | > 50 µM (inactive) |
| CC(C)c1cc(N2CCN(C(=O)c3ccco3)CC2)n2c(nc3ccccc32)c1C#N | 24.7 µM |
| CCCCc1c(C)c(C#N)c2nc3ccccc3n2c1Nc1c(C)n(C)n(-c2ccccc2)c1=O | 45 µM |
| CCc1ccc(S(=O)(=O)Nc2ccc(-c3nc4cccnc4s3)cc2)s1 | > 50 µM (inactive) |
| O=C(O)/C=C/C(=O)Nc1ccc2c(c1)NC(=O)CO2 | > 50 µM (inactive) |
| Cc1cccc(NS(=O)(=O)c2ccc(C(=O)N3CCCCCC3)cc2)c1C | > 50 µM (inactive) |
| COc1ccc(N2C(=O)CC(C#N)=C2N)cc1 | > 50 µM (inactive) |
| CCC(=O)N(C)/C=C1\Sc2ccccc2C1=O | > 50 µM (inactive) |
| CCCCc1cc(=O)oc2c(C)c(OCC(=O)NCc3ccccn3)ccc12 | > 50 µM (inactive) |
| Cc1c(C#N)c(NC(=O)CCl)n(Cc2ccccc2)c1C | > 50 µM (inactive) |
| CC1Cc2cc(/C(O)=C3/C(=O)C(=O)N(Cc4ccncc4)C3c3ccc(N(C)C)cc3)ccc2O1 (centres undefined) | > 50 µM (inactive) |
| CC1=NN(C(=O)c2ccccc2)C(O)(c2ccc(Br)cc2)C1 (centres undefined) | > 50 µM (inactive) |
| CN(C)c1oc(-c2cccs2)nc1C#N | > 50 µM (inactive) |
| COC(=O)c1cc2c(ccn2C)n1C | > 50 µM (inactive) |
| N#C/C(=C(/O)CSc1ccccn1)c1nc2ccccc2s1 | > 50 µM (inactive) |
| CCn1c(=O)cc(N2CCOCC2)[nH]c1=O | > 50 µM (inactive) |
| CCCn1c(=N)c(C(=O)NCc2ccc3c(c2)OCO3)cc2c(=O)n3cccc(C)c3nc21 | 10.2 µM |
| CCC1(C(=O)OC)NC(c2cccc(F)c2)C2C(=O)N(C)C(=O)C21 (centres undefined) | > 50 µM (inactive) |
| COC(=O)C1=CN(Cc2ccccc2)C=C(C(=O)OC)C1c1ccc(O)c(OC)c1 | > 50 µM (inactive) |
| Oc1nc(Nc2ccccc2)sc1/C=C1\C=Nc2ccccc21 | > 50 µM (inactive) |
| CC12OC1C1(O)CCCC1=CC2=O (centres undefined) | > 50 µM (inactive) |
